Type in all cases: biochemical
The target of experiment [1] is LRRK2 (WT) (Homo sapiens (Human), UniProt Q5S007). The experiment in a line: LRRK2 Kinase Assay (Adapta). Particulars: 70 μM ATP, LRRKtide substrate. On the procedure: (§1) The LRRK2 and LRRK2 G2019S kinase assays were performed using the Adapta™ technology in ThermoFisher Scientific. This experiment was carried out according to the supplier's protocol. Briefly, assay conditions were as follows. The mixture of substrate (LRRKtide) and each kinase was prepared in 50 mM Tris pH 8.5, 0.01% BRIJ-35, 10 mM MgCl2, 1 mM EGTA, 0.02% NaN3. Assays were performed in the presence of 70 μM ATP and 100 μM ATP (KmATP) in LRRK2 and LRRK2 G2019S, respectively. The reaction was progressed at room temperature for 1 hour. Upon completion of kinase reaction, 5 μL of Detection Mix was added and after 60 min incubation time, the emission ratio of 665/615 nm was calculated.
Sequence of LRRK2 (WT) (Q5S007 whole entry): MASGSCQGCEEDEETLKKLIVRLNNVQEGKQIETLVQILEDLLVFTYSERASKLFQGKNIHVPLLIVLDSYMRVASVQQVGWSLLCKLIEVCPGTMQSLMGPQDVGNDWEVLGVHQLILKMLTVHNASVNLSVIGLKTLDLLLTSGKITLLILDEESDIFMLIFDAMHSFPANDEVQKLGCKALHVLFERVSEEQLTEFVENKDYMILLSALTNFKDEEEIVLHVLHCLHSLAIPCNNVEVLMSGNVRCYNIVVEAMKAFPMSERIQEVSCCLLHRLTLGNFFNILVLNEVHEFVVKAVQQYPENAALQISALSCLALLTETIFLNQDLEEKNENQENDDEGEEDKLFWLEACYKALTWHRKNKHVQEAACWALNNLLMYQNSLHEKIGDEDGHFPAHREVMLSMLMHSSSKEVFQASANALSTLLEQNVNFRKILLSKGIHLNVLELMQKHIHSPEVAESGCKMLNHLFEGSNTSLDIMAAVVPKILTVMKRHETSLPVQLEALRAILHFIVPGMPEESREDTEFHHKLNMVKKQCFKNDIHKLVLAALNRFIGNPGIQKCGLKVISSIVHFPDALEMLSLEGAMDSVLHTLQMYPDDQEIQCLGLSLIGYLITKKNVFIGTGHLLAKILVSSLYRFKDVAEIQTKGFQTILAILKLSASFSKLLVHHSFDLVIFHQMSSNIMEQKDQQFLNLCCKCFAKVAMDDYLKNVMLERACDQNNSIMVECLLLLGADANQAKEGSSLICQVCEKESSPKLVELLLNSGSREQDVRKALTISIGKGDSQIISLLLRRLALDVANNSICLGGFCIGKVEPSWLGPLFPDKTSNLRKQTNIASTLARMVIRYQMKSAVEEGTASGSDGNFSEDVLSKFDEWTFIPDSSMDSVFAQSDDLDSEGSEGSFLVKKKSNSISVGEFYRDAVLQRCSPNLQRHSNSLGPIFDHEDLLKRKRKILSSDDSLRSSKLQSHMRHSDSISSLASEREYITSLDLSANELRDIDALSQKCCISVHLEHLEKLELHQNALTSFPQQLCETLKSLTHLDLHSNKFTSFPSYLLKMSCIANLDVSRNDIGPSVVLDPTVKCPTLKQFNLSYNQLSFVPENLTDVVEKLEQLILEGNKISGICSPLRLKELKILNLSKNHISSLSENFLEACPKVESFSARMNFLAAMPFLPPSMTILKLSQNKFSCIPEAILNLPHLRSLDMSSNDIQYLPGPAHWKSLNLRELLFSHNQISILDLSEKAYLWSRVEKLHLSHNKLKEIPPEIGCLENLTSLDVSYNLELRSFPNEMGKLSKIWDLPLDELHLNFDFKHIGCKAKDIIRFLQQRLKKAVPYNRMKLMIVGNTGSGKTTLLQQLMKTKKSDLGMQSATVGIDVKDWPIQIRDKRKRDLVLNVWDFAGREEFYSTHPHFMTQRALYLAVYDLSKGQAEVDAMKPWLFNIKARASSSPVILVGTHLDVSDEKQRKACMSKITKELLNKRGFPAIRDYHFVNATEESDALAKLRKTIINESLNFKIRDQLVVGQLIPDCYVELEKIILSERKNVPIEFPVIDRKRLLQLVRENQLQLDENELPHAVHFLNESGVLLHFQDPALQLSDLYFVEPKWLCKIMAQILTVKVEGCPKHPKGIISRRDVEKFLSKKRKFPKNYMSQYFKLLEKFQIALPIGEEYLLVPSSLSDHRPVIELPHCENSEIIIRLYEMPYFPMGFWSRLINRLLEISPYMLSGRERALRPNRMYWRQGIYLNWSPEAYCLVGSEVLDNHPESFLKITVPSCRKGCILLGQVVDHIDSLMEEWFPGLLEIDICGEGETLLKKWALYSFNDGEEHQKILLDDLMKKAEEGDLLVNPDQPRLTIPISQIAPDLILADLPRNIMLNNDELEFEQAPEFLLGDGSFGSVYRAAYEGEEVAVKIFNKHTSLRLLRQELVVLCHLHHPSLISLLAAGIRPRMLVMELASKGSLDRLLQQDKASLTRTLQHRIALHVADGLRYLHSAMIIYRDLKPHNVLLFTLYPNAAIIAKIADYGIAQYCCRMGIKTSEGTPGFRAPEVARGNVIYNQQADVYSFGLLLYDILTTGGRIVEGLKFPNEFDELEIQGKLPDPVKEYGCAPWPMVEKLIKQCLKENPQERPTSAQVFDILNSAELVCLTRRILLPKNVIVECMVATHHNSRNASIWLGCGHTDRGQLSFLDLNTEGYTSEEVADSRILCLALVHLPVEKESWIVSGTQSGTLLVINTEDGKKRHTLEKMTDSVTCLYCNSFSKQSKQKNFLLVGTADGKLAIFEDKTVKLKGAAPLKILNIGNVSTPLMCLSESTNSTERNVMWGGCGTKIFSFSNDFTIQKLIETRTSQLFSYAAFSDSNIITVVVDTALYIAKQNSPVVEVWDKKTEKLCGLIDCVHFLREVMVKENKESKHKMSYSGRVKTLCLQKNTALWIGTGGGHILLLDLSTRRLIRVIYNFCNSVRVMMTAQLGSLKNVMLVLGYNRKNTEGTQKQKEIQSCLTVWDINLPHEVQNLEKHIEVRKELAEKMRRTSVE

Experiment [2] has as its target LRRK2 G2019S (Homo sapiens (Human), UniProt Q5S007, G2019S). Description: LRRK2 G2019S Kinase Assay (Adapta). Particulars: 100 μM ATP, LRRKtide substrate; read-out: LRRK2_G2019S IC50. The method, then:
as §1

In experiment [3] the target is c-Abl (His-tagged recombinant human ABL1) (Homo sapiens (Human), UniProt P00519). Description: c-abl Kinase Assay (ADP-Glo). Particulars: ATP (25 μM), Abltide substrate. The method, then:
ADP-Glo assay kit was purchased from Promega. Magnesium chloride (MgCl2), bovine serum albumin (BSA), ethylene glycol-bis(p-aminoethyl ether)-N,N,N′,N′-tetraacetic acid (EGTA), triton X-100, 1,4-dithiothreitol (DTT) and dimethyl sulfoxide (DMSO) were purchased from Sigma-Aldrich. HEPES buffer was purchased from Gibco. ABL1 kinase and Abltide were purchased from Signalchem.
c-Abl kinase activity was measured by Promega's ADP-Glo™ Assay. In this assay, His-tagged recombinant human ABL1 (0.25 ng/μl) is incubated with 5 μL of compounds (0.5% DMSO), 5 μL of Abltide (0.01 μg/μl) and 5 μL of ATP (25 μM) in buffer (50 mM HEPES, 7.5; 10 mM MgCl2; 1 mM EGTA; 0.05% BSA; 0.01% Triton X-100; 2 mM DTT). The assay was started by incubating the reaction mixture in a 96-well plate at 30° C. for 30-min. After the incubation, 25 μL ADP-Glo reagent was added and the reaction was incubated at room temperature for 40-min to stop the reaction and degrade residual ATP. The ADP product was then converted to ATP by adding 50 μL per well of detection reagent. Luminescence was detected after 30-min room temperature incubation with the Molecular device I3X plate reader. The IC50 values were calculated from a series of percent inhibition values determined at a range of inhibitor concentration using software routines as implemented in the GraphPad Prism 7 software and Sigma Plot 13.0.

Sequence of LRRK2 G2019S (Q5S007 whole entry G2019S): as the sequence (Q5S007 whole entry) above, with G2019S counted along it
Sequence of c-Abl (His-tagged recombinant human ABL1) (P00519 whole entry): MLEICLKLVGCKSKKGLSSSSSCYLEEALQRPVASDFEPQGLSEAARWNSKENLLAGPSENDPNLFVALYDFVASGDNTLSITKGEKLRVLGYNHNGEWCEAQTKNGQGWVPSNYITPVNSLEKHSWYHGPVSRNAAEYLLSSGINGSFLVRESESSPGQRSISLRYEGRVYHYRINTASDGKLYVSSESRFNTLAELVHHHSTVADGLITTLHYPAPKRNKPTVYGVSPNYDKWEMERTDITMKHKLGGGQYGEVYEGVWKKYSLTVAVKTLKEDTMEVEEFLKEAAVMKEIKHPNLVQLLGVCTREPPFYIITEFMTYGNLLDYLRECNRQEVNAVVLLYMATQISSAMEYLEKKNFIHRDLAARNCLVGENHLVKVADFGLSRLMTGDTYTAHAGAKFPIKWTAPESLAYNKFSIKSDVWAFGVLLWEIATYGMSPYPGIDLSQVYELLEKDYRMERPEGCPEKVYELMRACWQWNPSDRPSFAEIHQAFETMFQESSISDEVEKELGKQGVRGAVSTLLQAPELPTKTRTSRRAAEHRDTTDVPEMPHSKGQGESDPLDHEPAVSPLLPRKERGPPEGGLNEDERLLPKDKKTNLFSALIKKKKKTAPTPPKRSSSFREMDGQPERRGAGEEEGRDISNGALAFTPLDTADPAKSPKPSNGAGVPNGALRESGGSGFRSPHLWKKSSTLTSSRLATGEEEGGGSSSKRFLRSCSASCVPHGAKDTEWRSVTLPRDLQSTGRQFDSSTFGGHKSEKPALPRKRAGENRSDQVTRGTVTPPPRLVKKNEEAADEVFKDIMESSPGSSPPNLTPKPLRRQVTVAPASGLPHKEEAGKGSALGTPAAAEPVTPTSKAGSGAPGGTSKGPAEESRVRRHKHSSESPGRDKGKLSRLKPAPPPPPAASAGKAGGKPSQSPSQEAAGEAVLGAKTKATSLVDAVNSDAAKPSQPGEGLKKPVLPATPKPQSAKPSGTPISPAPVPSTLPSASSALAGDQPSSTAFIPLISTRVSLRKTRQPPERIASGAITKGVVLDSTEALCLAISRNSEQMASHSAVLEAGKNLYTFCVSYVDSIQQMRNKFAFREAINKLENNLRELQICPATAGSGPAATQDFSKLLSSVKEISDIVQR

The IC50 is the concentration that inhibits the measured activity by half. On to `Cc1ccc2c(c1-c1ccc3nc(NC(=O)[C@@H]4C[C@@H]4F)cn3c1)CC(=O)N2` [Example 51, (1S,2S)-2-fluoro-N-(6-(5-methyl-2-oxoindolin-4-yl)imidazo[1,2-a]pyridin-2-yl)cyclopropane-1-carboxamide], for which the half-inhibitory concentration (IC50) was above 1000 nM in experiment [1], above 1000 nM in experiment [2] and below 10 nM in experiment [3].

Regarding `Cc1ccc(-c2cc[nH]c2)cc1-c1ccc2nc(NC(=O)[C@@H]3C[C@@H]3F)cn2c1` [Example 40, (1S,2S)-2-fluoro-N-(6-(2-methyl-5-(1H-pyrrol-3-yl)phenyl)imidazo[1,2-a]pyridin-2-yl)cyclopropane-1-carboxamide], the results for the half-inhibitory concentration (IC50) in experiment [1], in experiment [2] and in experiment [3] were 101 to 1000 nM, 10 to 100 nM and below 10 nM, respectively. Taken in the same sequence, the figures for `Cc1c(F)cncc1-c1ccc2nc(NC(=O)[C@@H]3C[C@@H]3F)cn2c1` [Example 14, (1S,2S)-2-fluoro-N-(6-(5-fluoro-4-methylpyridin-3-yl)imidazo[1,2-a]pyridin-2-yl)cyclopropane-1-carboxamide] were 101 to 1000 nM, 101 to 1000 nM and below 10 nM. For `Cc1c(F)cccc1-c1ccc2nc(NC(=O)[C@H]3C[C@H]3F)cn2c1` (stereo in doubt) [Example 73, 2-fluoro-N-(6-(3-fluoro-2-methylphenyl)imidazo[1,2-a]pyridin-2-yl)cyclopropanecarboxamide], in that order: 101 to 1000 nM, 10 to 100 nM and below 10 nM. Take `Cc1c(F)cccc1-c1ccc2nc(NC(=O)[C@@H]3C[C@@H]3F)c(Br)n2c1` [Example 58, (1S,2S)—N-(3-bromo-6-(3-fluoro-2-methylphenyl)imidazo[1,2-a]pyridin-2-yl)-2-fluorocyclopropane-1-carboxamide]: the IC50 in experiment [3] was 10 to 100 nM.

Consider `O=C(Nc1cn2cc(-c3cnc4[nH]ccc4c3Cl)ccc2n1)[C@@H]1C[C@@H]1F` [Example 87, (1S,2S)—N-(6-(4-chloro-1H-pyrrolo[2,3-b]pyridin-5-yl)imidazo[1,2-a]pyridin-2-yl)-2-fluorocyclopropanecarboxamide], for which the IC50 in experiment [3] was below 10 nM. With `COc1ccncc1-c1ccc2nc(NC(=O)[C@@H]3C[C@@H]3F)cn2c1` [Example 48, (1S,2S)-2-fluoro-N-(6-(4-methoxypyridin-3-yl)imidazo[1,2-a]pyridin-2-yl)cyclopropane-1-carboxamide], the half-maximal inhibitory concentration (IC50) in experiment [1] and in experiment [2] was 10 to 100 nM in each case.

With `Cc1ccc2ocnc2c1-c1ccc2nc(NC(=O)[C@@H]3C[C@@H]3F)cn2c1` [Example 102, (1S,2S)-2-fluoro-N-(6-(5-methylbenzo[d]oxazol-4-yl)imidazo[1,2-a]pyridin-2-yl)cyclopropanecarboxamide], the IC50 in experiment [3] was below 10 nM. On to `Cc1ccccc1-c1ccc2nc(NC(=O)[C@@H]3C[C@@H]3F)cn2c1` [Example 88, (1S,2S)-2-fluoro-N-(6-(o-tolyl)imidazo[1,2-a]pyridin-2-yl)cyclopropanecarboxamide], for which the IC50 in experiment [3] is below 10 nM. On to `O=C(Nc1cn2cc(-c3ccccc3C(F)(F)F)ccc2n1)[C@@H]1C[C@@H]1F` [Example 96], for which the IC50 in experiment [3] lay within 10 to 100 nM. For `Cc1c(-c2ccc3nc(NC(=O)[C@@H]4C[C@@H]4F)cn3c2)cnc2[nH]ccc12` [Example 86, (1S,2S)-2-fluoro-N-(6-(4-methyl-1H-pyrrolo[2,3-b]pyridin-5-yl)imidazo[1,2-a]pyridin-2-yl)cyclopropanecarboxamide], in experiment [3], the concentration for half-maximal inhibition (IC50) is below 10 nM.

Turning to `Cc1ccc2[nH]cnc2c1-c1ccc2nc(NC(=O)[C@@H]3C[C@@H]3F)cn2c1` [Example 100, (1S,2S)-2-fluoro-N-(6-(5-methyl-1H-benzo[d]imidazol-4-yl)imidazo[1,2-a]pyridin-2-yl)cyclopropane-1-carboxamide], the IC50 in experiment [3] fell in the range of 10 to 100 nM.

Regarding `O=C(Nc1cn2cc(-c3cccc(F)c3O)ccc2n1)[C@@H]1C[C@@H]1F` [Example 89, (1S,2S)-2-fluoro-N-(6-(3-fluoro-2-hydroxyphenyl)imidazo[1,2-a]pyridin-2-yl)cyclopropanecarboxamide], in experiment [3], the IC50 is below 10 nM. On to `CNc1c(F)cccc1-c1ccc2nc(NC(=O)[C@@H]3C[C@@H]3F)cn2c1` [Example 98, (1S,2S)-2-fluoro-N-(6-(3-fluoro-2-(methylamino)phenyl)imidazo[1,2-a]pyridin-2-yl)cyclopropanecarboxamide], for which the IC50 in experiment [3] was below 10 nM. `Nc1c(F)cccc1-c1ccc2nc(NC(=O)[C@@H]3C[C@@H]3F)cn2c1` [Example 90, (1S,2S)—N-(6-(2-amino-3-fluorophenyl)imidazo[1,2-a]pyridin-2-yl)-2-fluorocyclopropanecarboxamide]: the IC50 in experiment [3] is below 10 nM. On the same count and under the same terms, the result for `Cc1cc2ncsc2cc1-c1ccc2nc(NC(=O)[C@@H]3C[C@@H]3F)cn2c1` [Example 103, (1S,2S)-2-fluoro-N-(6-(5-methylbenzo[d]thiazol-6-yl)imidazo[1,2-a]pyridin-2-yl)cyclopropanecarboxamide] reads below 10 nM. On the same count and under the same terms, the result for `CN(C)c1c(F)cccc1-c1ccc2nc(NC(=O)[C@@H]3C[C@@H]3F)cn2c1` [Example 93, (1S,2S)—N-(6-(2-(dimethylamino)-3-fluorophenyl)imidazo[1,2-a]pyridin-2-yl)-2-fluorocyclopropanecarboxamide] reads 10 to 100 nM; that for `Cc1cc2nc[nH]c2cc1-c1ccc2nc(NC(=O)[C@@H]3C[C@@H]3F)cn2c1` [Example 94, (1S,2S)-2-fluoro-N-(6-(5-methyl-1H-benzo[d]imidazol-6-yl)imidazo[1,2-a]pyridin-2-yl)cyclopropanecarboxamide], below 10 nM. On to `Cc1c(F)cccc1-c1ccc2nc(NC(=O)C3CC3(F)F)cn2c1` (centres unmarked) [Example 77, 2,2-difluoro-N-(6-(3-fluoro-2-methylphenyl)imidazo[1,2-a]pyridin-2-yl)cyclopropanecarboxamide], for which the IC50 in experiment [1] fell in the range of 101 to 1000 nM; in experiment [2], 10 to 100 nM. For the molecule `Cc1cc2cc[nH]c2cc1-c1ccc2nc(NC(=O)[C@@H]3C[C@@H]3F)cn2c1` [Example 91, (1S,2S)-2-fluoro-N-(6-(5-methyl-1H-indol-6-yl)imidazo[1,2-a]pyridin-2-yl)cyclopropanecarboxamide], the IC50 in experiment [3] is below 10 nM.

Take `CCc1c(F)cccc1-c1ccc2nc(NC(=O)[C@@H]3C[C@@H]3F)cn2c1` [Example 95, (1S,2S)—N-(6-(2-ethyl-3-fluorophenyl)imidazo[1,2-a]pyridin-2-yl)-2-fluorocyclopropanecarboxamide]: in experiment [3], the IC50 was below 10 nM. `Cc1c(-c2ccc3nc(NC(=O)[C@@H]4C[C@@H]4F)cn3c2)ccc2ncsc12` [Example 104, (1S,2S)-2-fluoro-N-(6-(7-methylbenzo[d]thiazol-6-yl)imidazo[1,2-a]pyridin-2-yl)cyclopropanecarboxamide]: in experiment [3], the IC50 was below 10 nM.

`Cc1cc2ncoc2cc1-c1ccc2nc(NC(=O)[C@@H]3C[C@@H]3F)cn2c1` [Example 99, (1S,2S)-2-fluoro-N-(6-(5-methylbenzo[d]oxazol-6-yl)imidazo[1,2-a]pyridin-2-yl)cyclopropanecarboxamide]: the IC50 in experiment [3] was below 10 nM.

`CC(C)c1c(F)cccc1-c1ccc2nc(NC(=O)[C@@H]3C[C@@H]3F)cn2c1` [Example 105, (1S,2S)-2-fluoro-N-(6-(3-fluoro-2-isopropylphenyl)imidazo[1,2-a]pyridin-2-yl)cyclopropanecarboxamide]: the IC50 in experiment [3] fell in the range of 101 to 1000 nM. Turning to `Cc1cc2[nH]ccc2cc1-c1ccc2nc(NC(=O)[C@@H]3C[C@@H]3F)cn2c1` [Example 92, (1S,2S)-2-fluoro-N-(6-(6-methyl-1H-indol-5-yl)imidazo[1,2-a]pyridin-2-yl)cyclopropanecarboxamide], the IC50 in experiment [3] is below 10 nM. Consider `Cc1cccc(C)c1-c1ccc2nc(NC(=O)[C@@H]3C[C@@H]3F)cn2c1` [Example 42, (1S,2S)—N-(6-(2,6-dimethylphenyl)imidazo[1,2-a]pyridin-2-yl)-2-fluorocyclopropane-1-carboxamide], for which the IC50 in experiment [1] and in experiment [2] was 101 to 1000 nM each time. For `O=C(Nc1cn2cc(-c3cccc(F)c3C3CC3)ccc2n1)[C@@H]1C[C@@H]1F` [Example 97, (1S,2S)—N-(6-(2-cyclopropyl-3-fluorophenyl)imidazo[1,2-a]pyridin-2-yl)-2-fluorocyclopropanecarboxamide], the IC50 in experiment [3] was below 10 nM.

Source of the values: US11098044B2, “Imidazopyridinyl compounds and use thereof for treatment of neurodegenerative disorders” (1ST Biotherapeutics, Inc., priority 2019, dated 2021).
